Results on four compounds are retold here after ChEMBL document CHEMBL1201862, “PubChem BioAssay data set” (2004).

By EC50 is commonly meant the concentration needed to bring the measured effect to its halfway point. As a reminder, the AC50 is the concentration giving half of the maximal activity seen.

Calls of active or inactive are those of the source.

In one assay the target is T1, Caspase-3 (Homo sapiens, UniProt P42574).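 Further: Dose-response selectivity test against caspase-3 for candidate inhibitors of sentrin-specific proteases (SENPs).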
T1 sequence (P42574 whole entry): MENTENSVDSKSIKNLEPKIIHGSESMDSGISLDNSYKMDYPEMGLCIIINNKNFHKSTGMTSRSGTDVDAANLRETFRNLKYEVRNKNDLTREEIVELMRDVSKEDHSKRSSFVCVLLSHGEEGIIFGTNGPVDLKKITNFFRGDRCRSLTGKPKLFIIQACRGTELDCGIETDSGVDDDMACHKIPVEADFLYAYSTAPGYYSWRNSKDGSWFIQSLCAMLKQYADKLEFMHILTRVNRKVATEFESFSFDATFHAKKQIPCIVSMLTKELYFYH
The class given is functional.

The target in assay [1] is Serine/threonine-protein phosphatase PP1-alpha catalytic subunit (Homo sapiens, UniProt P62136). Nature of the assay: inhibition of protein phosphatase 1 activity – biochemical, fluorescence, dose response (AID 2394).
Sequence of Serine/threonine-protein phosphatase PP1-alpha catalytic subunit (P62136 whole entry): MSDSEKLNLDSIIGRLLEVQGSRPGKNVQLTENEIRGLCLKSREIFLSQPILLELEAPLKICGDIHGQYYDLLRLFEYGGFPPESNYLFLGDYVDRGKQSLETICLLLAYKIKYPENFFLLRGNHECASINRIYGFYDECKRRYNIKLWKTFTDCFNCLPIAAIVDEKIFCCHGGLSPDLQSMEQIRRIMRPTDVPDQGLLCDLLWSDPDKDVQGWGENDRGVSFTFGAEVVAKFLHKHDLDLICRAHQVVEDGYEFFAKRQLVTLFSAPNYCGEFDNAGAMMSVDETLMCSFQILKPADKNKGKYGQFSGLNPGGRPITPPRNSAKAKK
The nature of assay [2]: NIH3T3 cell viability loss – ATP luminescence, mouse fibroblasts, counter-screen, dose response (AID 2010).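 Further: cells exposed to compound for about 90 hours before reading.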 The class given is functional, cell-based. Background: Counterscreens check selectivity or assay interference.
For assay [3], the target named is T2, Sentrin-specific protease 8 (Homo sapiens, UniProt Q96LD8).
T2 sequence (Q96LD8 whole entry): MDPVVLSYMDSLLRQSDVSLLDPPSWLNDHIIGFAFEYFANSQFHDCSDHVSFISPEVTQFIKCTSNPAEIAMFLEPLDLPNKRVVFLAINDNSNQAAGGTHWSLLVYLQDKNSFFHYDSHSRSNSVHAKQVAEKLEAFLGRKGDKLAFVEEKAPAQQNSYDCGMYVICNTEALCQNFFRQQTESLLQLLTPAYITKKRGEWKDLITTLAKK
The assay can be described thus: inhibition of human SENP8 cleavage activity – biochemical, luminescence, SAR follow-up (AID 504501). It is filed as functional.

Assay [4] addresses T3, Serine/threonine-protein phosphatase (Homo sapiens, UniProt Q9BPW0).
T3 sequence (Q9BPW0 whole entry): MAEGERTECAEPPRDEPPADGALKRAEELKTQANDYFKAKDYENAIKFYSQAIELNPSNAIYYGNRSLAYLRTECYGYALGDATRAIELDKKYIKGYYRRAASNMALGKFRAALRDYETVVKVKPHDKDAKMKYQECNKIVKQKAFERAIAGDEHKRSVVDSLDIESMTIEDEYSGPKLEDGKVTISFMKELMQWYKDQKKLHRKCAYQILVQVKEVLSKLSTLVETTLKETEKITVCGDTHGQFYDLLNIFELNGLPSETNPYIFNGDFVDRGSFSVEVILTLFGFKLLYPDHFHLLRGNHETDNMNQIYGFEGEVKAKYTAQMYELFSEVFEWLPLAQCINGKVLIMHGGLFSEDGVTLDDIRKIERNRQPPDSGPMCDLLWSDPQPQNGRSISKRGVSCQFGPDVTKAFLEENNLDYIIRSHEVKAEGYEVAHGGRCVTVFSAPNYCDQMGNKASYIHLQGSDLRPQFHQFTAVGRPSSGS
The assay can be described thus: inhibition of protein phosphatase 5 activity – biochemical, fluorescence, dose response (AID 2395).

The subject of the next assay is Streptococcus. The assay can be described thus: GAS UMAA2166 growth inhibition – luminescence, BacTiterGlo, counter-screen for streptokinase expression inhibitor project, dose response (AID 1915).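 Further: potency for reduction of bacterial viability or growth.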 The class given is functional, organism-based.
Assay [5] relates to HEK293. Nature of the assay: inhibition of NOD1-driven NF-kB reporter – cell-based, luminescence, uHTS, primary screen (AID 1578). It is filed as functional. The conditions noted are these: Homo sapiens.
For a further assay, the system named is H4. The assay can be described thus: inhibitors of control reporter signal in H4 cells – cell-based, plate reader, dry powder samples, counter-screen for prion reporter project, dose response (AID 540255). The conditions noted are these: Homo sapiens. It is filed as functional.
Assay [6] concerns the target Delta-type opioid receptor (Homo sapiens, UniProt P41143). The assay can be described thus: Counterscreen for agonists of heterodimerization of the mu 1 (OPRM1) and delta 1 (OPRD1) opioid receptors: Luminescence-based cell-based high throughput dose response assay to identify agonists of OPRD1 homodimerization. [Related pubchem assays (depositor defined):AID504326, AID504355, AID504692, AID504904, AID504905]. The class given is functional.

Assay [7] has as its system HEK293. Nature of the assay: cells. It is filed as functional, cell-based. The note with it: Homo sapiens.
Another assay has as its target T4, Streptokinase A (Streptococcus pyogenes serotype M1, UniProt P10520).
T4 sequence (P10520 whole entry): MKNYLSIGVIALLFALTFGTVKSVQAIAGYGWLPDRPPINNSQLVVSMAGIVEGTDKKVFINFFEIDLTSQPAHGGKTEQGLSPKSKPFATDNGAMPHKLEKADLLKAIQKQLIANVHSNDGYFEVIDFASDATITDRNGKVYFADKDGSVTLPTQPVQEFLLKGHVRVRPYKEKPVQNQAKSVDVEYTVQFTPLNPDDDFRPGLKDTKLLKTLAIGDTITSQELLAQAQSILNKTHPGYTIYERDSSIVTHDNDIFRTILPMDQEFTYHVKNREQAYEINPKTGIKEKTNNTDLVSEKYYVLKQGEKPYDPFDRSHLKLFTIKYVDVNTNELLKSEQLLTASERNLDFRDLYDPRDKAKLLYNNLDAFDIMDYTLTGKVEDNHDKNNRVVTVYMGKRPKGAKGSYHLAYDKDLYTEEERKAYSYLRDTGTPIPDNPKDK
Nature of the assay: viability-normalized secreted streptokinase activity reduction – plasminogen activation absorbance, OD405, dose response (AID 1914).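 Further: secreted streptokinase activity via plasminogen activation per viability signal from cell pellet.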 It is filed as functional, Streptococcus pyogenes M1 GAS.

Assay [8] relates to HEK293. Nature of the assay: NOD2 signaling inhibitors in MDP-stimulated cells, cell-based, uHTS, luminescence (AID 2001). The conditions noted are these: Homo sapiens. The class given is functional.
Assay [9] addresses Heat shock protein HSP 90-alpha (Homo sapiens, UniProt P07900). The class given is functional, organism-based.
The target of assay [10] is 5-hydroxytryptamine receptor 5A (Homo sapiens, UniProt P47898). The assay can be described thus: Counterscreen for agonists of OPRM1-OPRD1 heterodimerization: luminescence-based cell-based high throughput dose response assay to identify agonists of 5-hydroxytryptamine (serotonin) 5A receptor (HTR5A). [Related pubchem assays (depositor defined):AID504326, AID504355, AID504692, AID504904, AID504905]. It is filed as functional.
Sequence of 5-hydroxytryptamine receptor 5A (P47898 whole entry): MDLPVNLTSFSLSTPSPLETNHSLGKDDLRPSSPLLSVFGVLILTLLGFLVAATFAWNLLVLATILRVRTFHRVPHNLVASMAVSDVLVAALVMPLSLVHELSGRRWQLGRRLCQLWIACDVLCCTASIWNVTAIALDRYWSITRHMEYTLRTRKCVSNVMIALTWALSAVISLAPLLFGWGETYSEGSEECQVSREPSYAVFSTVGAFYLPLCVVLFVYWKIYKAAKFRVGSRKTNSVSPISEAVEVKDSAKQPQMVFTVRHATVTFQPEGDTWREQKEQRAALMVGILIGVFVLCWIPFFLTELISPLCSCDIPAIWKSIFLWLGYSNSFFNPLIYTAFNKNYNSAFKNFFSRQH

Assay [11] concerns Streptococcus sp. 'group A'. Nature of the assay: Streptococcus pyogenes SK(-)GAS viability under kanamycin – luminescence, BacTiterGlo, confirmation, counter-screen for streptokinase expression inhibitor project, dose response (AID 1900). The class given is functional, organism-based.
Assay [12] can be described thus: inhibition of ARNT PAS-B/TACC3 complex formation – biochemical, AlphaScreen, cherry-picked samples, confirmation (AID 651703).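 Further: His-tagged ARNT PAS-B domain paired with GST-TACC3 E629A dimer coactivator fragment; potency of inhibitors that break up the complex and lower AlphaScreen signal.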 The class given is functional, Homo sapiens. Background: In Alpha technology, singlet oxygen from a donor bead excites a nearby acceptor bead.
Assay [13] in a line: bead-based luminescence quenchers, dual-tagged ARNT – biochemical, AlphaScreen, cherry-pick, artefact control for ARNT-TACC3 interaction inhibitor project, dose response (AID 651705).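 Further: AlphaScreen bead proximity signal that flags compounds interfering with the detection technology; potency reflects signal decrease which marks the compound as an assay artifact.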 It is filed as functional.
A further assay addresses SUMO E1/E2 (Homo sapiens, UniProt P63279+Q9UBE0+Q9UBT2). Nature of the assay: SAR analysis of SUMOylation using HTRF in an in-Vitro dose response assay. [Related pubchem assays (depositor defined):AID2006, AID2011, AID2018, AID2069, AID2658]. It is filed as functional.
For assay [14], the target named is Polyadenylate-binding protein 1 (Homo sapiens, UniProt P11940). The assay can be described thus: MLLE binding blockers, Cy5 peptide tracer – biochemical, fluorescence polarization, Cy5-PAM2 peptide, secondary, miRNA deadenylation inhibitor project, dose response (AID 602260). It is filed as functional. The note with it: read-out: IC50_Mean. On the technique in general: In fluorescence polarisation assays a small probe gives low polarisation when free and higher when bound to something large.
Sequence of Polyadenylate-binding protein 1 (P11940 whole entry): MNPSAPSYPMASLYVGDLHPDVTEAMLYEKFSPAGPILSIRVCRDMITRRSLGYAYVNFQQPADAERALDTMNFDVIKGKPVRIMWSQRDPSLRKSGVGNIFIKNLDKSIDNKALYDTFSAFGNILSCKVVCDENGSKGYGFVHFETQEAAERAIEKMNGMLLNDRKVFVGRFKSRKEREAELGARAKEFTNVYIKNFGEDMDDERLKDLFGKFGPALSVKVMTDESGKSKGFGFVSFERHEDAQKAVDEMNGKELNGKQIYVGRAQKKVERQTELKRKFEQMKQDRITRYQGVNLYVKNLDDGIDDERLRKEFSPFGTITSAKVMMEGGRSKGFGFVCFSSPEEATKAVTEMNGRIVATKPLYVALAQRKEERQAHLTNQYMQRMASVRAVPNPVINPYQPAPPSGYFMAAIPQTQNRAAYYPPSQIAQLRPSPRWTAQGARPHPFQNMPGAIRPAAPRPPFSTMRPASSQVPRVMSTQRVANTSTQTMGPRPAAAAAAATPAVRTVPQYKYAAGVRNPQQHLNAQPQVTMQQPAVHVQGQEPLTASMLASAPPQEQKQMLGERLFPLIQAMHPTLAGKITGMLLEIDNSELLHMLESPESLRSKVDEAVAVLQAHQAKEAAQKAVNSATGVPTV

Sequence of Delta-type opioid receptor (P41143 whole entry): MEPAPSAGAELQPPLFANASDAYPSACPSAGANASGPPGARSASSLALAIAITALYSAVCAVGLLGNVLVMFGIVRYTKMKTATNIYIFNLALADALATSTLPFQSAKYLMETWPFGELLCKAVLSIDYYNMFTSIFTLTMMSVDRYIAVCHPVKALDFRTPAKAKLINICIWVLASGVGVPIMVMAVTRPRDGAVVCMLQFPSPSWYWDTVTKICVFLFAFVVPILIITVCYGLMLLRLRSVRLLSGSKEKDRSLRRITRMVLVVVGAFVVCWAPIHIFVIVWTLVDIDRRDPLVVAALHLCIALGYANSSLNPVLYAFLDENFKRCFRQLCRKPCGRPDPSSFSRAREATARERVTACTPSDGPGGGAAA
Sequence of SUMO E1/E2 (Q9UBE0 whole entry): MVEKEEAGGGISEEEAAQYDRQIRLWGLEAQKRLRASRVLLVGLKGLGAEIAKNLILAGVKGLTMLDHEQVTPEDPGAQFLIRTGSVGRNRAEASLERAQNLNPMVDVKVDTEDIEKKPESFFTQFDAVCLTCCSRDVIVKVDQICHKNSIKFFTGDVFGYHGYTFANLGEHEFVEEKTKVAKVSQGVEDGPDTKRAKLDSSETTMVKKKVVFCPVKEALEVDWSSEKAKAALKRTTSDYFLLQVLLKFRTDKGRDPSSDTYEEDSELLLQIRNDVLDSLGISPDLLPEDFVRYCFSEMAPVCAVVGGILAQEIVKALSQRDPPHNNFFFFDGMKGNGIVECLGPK
Sequence of SUMO E1/E2 (Q9UBT2 whole entry): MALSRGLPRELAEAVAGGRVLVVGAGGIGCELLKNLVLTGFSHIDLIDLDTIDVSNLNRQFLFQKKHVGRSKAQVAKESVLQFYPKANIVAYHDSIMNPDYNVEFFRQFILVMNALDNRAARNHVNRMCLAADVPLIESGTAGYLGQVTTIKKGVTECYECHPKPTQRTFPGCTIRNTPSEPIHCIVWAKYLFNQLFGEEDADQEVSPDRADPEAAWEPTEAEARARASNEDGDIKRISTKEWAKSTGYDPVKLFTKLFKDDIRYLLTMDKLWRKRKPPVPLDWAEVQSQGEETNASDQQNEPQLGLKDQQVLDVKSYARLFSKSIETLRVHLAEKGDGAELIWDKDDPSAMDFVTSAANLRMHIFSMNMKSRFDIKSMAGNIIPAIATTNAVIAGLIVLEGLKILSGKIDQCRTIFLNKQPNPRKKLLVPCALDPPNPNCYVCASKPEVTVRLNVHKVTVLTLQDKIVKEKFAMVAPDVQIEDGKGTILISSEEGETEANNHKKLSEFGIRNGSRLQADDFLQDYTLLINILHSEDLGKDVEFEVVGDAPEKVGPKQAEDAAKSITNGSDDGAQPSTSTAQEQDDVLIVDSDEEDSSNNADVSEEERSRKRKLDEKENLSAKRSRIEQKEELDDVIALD
Sequence of SUMO E1/E2 (P63279 whole entry): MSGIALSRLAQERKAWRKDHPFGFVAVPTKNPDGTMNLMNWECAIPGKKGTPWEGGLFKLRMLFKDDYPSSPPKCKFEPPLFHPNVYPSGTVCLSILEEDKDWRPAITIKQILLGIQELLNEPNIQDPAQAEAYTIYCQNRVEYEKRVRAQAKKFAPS

Regarding `Cc1ccc(C(=O)NNc2cc(N3CCCC3)nc(N3CCCC3)n2)cc1`, the IC50 at Caspase-3 is > 100 µM (inactive); in assay [1] it was 64 µM (not active); in assay [3] it was 4.39 µM (active); in [4], 4.1 µM (active). In [2], the half-maximal effective concentration (EC50) is given as > 30 µM (not active).

As to `Cc1cc(/C=C2\SC(=S)N(C)C2=O)c(C)n1-c1ccc(O)cc1`, the EC50 in the assay with Streptococcus is 3.06 µM (active); with HEK293 [5], 9.47 µM (active); in assay [6], 15.1 µM (inactive); on Streptokinase A it was > 150 µM (not active); in assay [10], > 92.5 µM (inactive); in [11], 3.41 µM (active). Moreover, the AC50 is 0.492 µM (active) in the assay with H4 and 8.02 µM (active) in [9]. Moreover, the IC50 with HEK293 [7] was 0.345 µM (active); in the assay on HEK293 [8], 6.54 µM (inactive).

Take `COC(=O)c1cccc(-c2ccc(C(c3c(C)n[nH]c3O)c3c(C)n[nH]c3O)o2)c1`: the AC50 in assay [12] was 87.9 µM (active); in assay [13] it was 107 µM (active). On SUMO E1/E2, the IC50 is > 100 µM (inactive).

As for `O=C1/C(=N\c2cccc(O)c2)C(N2CCCCC2)=C(O)c2ccccc21`, the IC50 in assay [14] is > 66 µM (inactive).
